# Experimental data: patent publication US9061981B2, “Diphenyl substituted cyclohexane derivatives, useful as modulators of the estrogen receptors beta” (Acadia Pharmaceuticals Inc., priority 2011, dated 2015)
# How the values were obtained:
# [1] = Unidirectional permeability across MatTek EpiOral buccal tissue; type: in vitro ADME, human
# Description: EpiOral→tissues plated in 24-well plates were obtained from MatTek Corporation (Ashland, Mass., USA). The assay buffer was Dulbeccos' Phosphate Buffered Saline (DPBS) without Ca & Mg chloride, pH 7.4. Each test compound was co-dosed with the two control compounds. Targeting dosing concentrations were 10 μM for each test compound and 100 μM for the two control compounds. Prior to the permeability assay onset, the tissues were preequilibrated in a pre-warmed EpiOral assay medium for one hour at 37° C. in a 5% CO2 incubator. The EpiOral assay medium was aspirated after the pre-equilibration, and the tissues were washed twice with the DPBS buffer. The receiver chambers were filled with 0.75 mL of the DPBS buffer, while the donor chambers received 0.4 mL of the dosing solutions. The assay plates were placed at 37° C. in a 5% CO2 incubator. The receiver samples (200 μL) were collected at 30, 60, and 120 minutes, and replaced with an equal volume of fresh pre-warmed receiver buffer (except for the last time point of 120 minutes). The donor sides were sampled at 0 and 120 minutes. The test compounds were then analyzed using LC-MS/MS.
# [2] = tested on: bilateral 6-hydroxydopamine (6OHDA) lesion of the substantia nigra; test: Bilateral 6OHDA lesion of the substantia nigra, behavioral assessment; type: in vivo, Male rats; conditions: for prepulse inhibition (sensorimotor gating): 6OHDA rats, once daily 7 days sc, 10 mg/kg (estradiol 100 μg/kg); for motor performance (spontaneous locomotor activity, rotorod, challenging beam) / novel object recognition (cognition): rat, in vivo; for novel object recognition (cognition): sc, 10 mg/kg
# Description: (§1) Male rats received baseline assessment of weight, motor function (spontaneous locomotor behavior, rotorod performance) and sensorimotor gating (prepulse inhibition). Subjects were assigned to treatment conditions to equalize performance on all these measures. Subjects were then treated once daily for 7 days with either sesame oil vehicle, estradiol (100 μg/kg sc), Comparative substance 131 (10 mg/kg sc), Compound 8 (10 mg/kg sc), Comparative substance 623 (10 mg/kg sc) or Comparative substance 957 (10 mg/kg sc). On the second day of treatment, subjects received bilateral sham or 6OHDA lesions (8 μg in 4 μl) of the substantia nigra (A/P−5.0 mm, M/L±1.6 mm, D/V−8.2 mm) following the atlas of Paxinos and Watson (Paxinos, G., Watson, C., The Rat Brain in Stereotaxic Coordinates, Fourth Edition, New York: Academic Press, Spiral Bound, 1998). Behavioral assessments of motor function (spontaneous locomotion, rotorod and traversing a challenging beam), cognition (novel object recognition) and sensorimotor gating (prepulse inhibition) began after the final day of treatment. Following behavioral assessment, SN and striatal tissue were collected in order to determine the intactness of the nigrostriatal dopamine system.
# [3] = tested on: nigrostriatal dopamine neurons; test: Tyrosine hydroxylase immunofluorescence in SN and STR after 6OHDA lesion; type: in vivo, Male rats; conditions: 6OHDA rats, once daily 7 days sc; 10 mg/kg (estradiol 100 μg/kg)
# Description: as §1
# Comparative compound 131 and Compound 8 were compared with estradiol for their ability to protect nigrostriatal dopamine neurons as measured by tyrosine hydroxylase (TH) immunohistochemistry in the SN and striatum (STR).
# [4] = biological target: T1, ERβ (Homo sapiens, UniProt Q92731); test: R-SAT functional assay, ERβ; type: cell-based; set-up: expressed in transfected cells; host or cells: transient transfection; conditions: NIH3T3, read-out: R-SAT Erβ % Eff
# Text: R-SAT® (Receptor Selection and Amplification Technology) is a cell-based functional assay that allows one to monitor receptor-dependent proliferative responses and has been described elsewhere. […] This process is achieved by partial cellular transformation via loss of contact inhibition and growth factor dependency. Monitoring is achieved by transfecting the cells with a β-galactosidase reporter gene vector whose expression is under a constitutively active promoter. Briefly, NIH-3T3 fibroblasts were plated overnight in 96-wells plates in DMEM 10% calf serum (Hyclone) and grown to 60-70% confluency prior to transfection. Transient transfections were performed using Polyfect (Qiagen) according to manufacturer's instructions. Typically a transfection mix would consist of the receptor and the β-galactosidase expression vectors. Sixteen hours post-transfection, cells were incubated with different doses of ligand in DMEM containing 30% Ultraculture (Hyclone) and 0.4% calf serum (Hyclone) to generate a dose response curve. […] Plates were read using a microplate reader at 420 nm. Data from R-SAT® assays were fit to the equation: r=A+B(x/(x+c)), where A=minimum response, B=maximum response minus minimum response, c=EC50, r=response, and x=concentration of ligand. Curves were generated using the curve fitting softwares Excel Fit and GraphPad Prism (San Diego, Calif.). Luciferase Reporter Gene Assay
# [5] = biological target: T2, ERα (Homo sapiens, UniProt P03372); test: Luciferase reporter gene assay (3*ERE) in HEK293 cells, ERα; type: cell-based; set-up: expressed in transfected cells; host or cells: transient transfection; conditions: 48 hours; for EC50: na = not active, read-out: Luciferase Erα pEC50 (converted)
# T2 sequence (P03372 1-595): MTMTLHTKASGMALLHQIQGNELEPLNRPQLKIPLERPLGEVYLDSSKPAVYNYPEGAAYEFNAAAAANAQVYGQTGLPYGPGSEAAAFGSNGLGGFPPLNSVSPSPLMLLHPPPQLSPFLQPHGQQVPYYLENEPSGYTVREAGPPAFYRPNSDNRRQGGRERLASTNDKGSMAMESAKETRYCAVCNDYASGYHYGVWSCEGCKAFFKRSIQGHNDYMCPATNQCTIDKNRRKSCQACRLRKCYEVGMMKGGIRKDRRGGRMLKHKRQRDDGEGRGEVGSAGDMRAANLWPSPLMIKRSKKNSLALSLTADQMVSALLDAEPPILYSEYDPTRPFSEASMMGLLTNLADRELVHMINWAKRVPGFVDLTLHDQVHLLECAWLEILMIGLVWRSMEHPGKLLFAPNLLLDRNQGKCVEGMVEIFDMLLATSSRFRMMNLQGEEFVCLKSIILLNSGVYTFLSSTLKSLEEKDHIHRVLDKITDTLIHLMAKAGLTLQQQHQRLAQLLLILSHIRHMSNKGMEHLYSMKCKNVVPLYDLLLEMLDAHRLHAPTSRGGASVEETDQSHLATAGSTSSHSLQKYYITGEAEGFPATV
# Description: (§2) HEK293 cells were grown to 70% confluency in DMEM containing 10% calf serum (Hyclone) prior to transfection. On the day of transfection (day 1), expression vectors for ERα or ERβ were cotransfected along a construct containing a synthetic 3*ERE upstream of the luciferase gene (Panomics), using Polyfect (Qiagen) per manufacturer's recommendations (ERE being estrogen response element). Sixteen hours post-transfection, cells were incubated in serum free DMEM. […] Cells extracts were then obtained by lyzing and the Luciferase activity measured, all of these steps performed using a commercially available kit (Promega).
# [6] = biological target: T1, ERβ; test: R-SAT functional assay, ERβ; type: cell-based; set-up: expressed in transfected cells; host or cells: transient transfection
# [7] = biological target: T1, ERβ; test: Luciferase reporter gene assay (3*ERE) in HEK293 cells, ERβ; type: cell-based; set-up: expressed in transfected cells; host or cells: HEK293 cells, transient transfection; conditions: for Emax: HEK293, 48 h, read-out: Luciferase Erβ % Eff
# Description: as §2
# T1 sequence (Q92731 whole entry, species assumed): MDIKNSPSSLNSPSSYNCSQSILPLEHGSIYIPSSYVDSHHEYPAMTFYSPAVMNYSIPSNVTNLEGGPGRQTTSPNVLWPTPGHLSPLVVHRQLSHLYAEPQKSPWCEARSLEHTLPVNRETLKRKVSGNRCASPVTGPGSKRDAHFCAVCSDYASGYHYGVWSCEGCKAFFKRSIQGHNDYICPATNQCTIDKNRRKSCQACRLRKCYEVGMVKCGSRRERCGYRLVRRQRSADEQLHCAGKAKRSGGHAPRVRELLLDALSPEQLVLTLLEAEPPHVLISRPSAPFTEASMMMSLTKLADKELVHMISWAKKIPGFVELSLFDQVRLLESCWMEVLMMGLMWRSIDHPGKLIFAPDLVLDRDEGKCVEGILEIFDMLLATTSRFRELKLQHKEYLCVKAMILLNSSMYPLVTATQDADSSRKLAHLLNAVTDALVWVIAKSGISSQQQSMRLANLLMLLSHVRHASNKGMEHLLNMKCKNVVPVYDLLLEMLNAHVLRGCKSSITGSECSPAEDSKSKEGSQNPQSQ
Structure (SMILES),permeability classification in MatTek EpiOral buccal tissue [1],prepulse inhibition (sensorimotor gating) [2],"motor performance (spontaneous locomotor activity, rotorod, challenging beam) [2]",novel object recognition (cognition) [2],"percent immunopositive, mean cell size and mean pixel intensity of TH immunofluorescence in the SN [3]",tyrosine hydroxylase positive cell number in the SN [3],Emax [4] [%],Luciferase Erα % Eff [5] [%],EC50 [6] [nM],EC50 [7] [nM],Emax [7] [%],EC50 [5] [nM],percent immunopositive and mean pixel intensity of TH immunofluorescence in the STR [3]
Oc1ccc(C2(c3ccccc3Cl)CCCCC2)cc1F [Compound 957],low permeability,prevented the 6OHDA-induced deficit in PPI,prevented the impairment,did not reverse the cognitive deficit,"improved percent immunopositive, mean cell size and mean pixel intensity",prevented the reduction in cell number,94,13,1.58,1.26,62,–,–
Oc1ccc(C2(c3cccc(F)c3Cl)CCCCC2)cc1 [Compound 623],low permeability,prevented the 6OHDA-induced deficit in PPI,prevented the impairment,showed improved memory,"improved percent immunopositive, mean cell size and mean pixel intensity",prevented the reduction in cell number,89,15,6.31,5.01,99,398,–
"Oc1ccc(C2(c3ccccc3F)CCC(F)(F)CC2)cc1 [Compound 8, 4-(4,4-Difluoro-1-(2-fluorophenyl)cyclohexyl)phenol]",highly permeable,prevented the 6OHDA-induced deficit in PPI,prevented the impairment,showed improved memory,"improved percent immunopositive, mean cell size and mean pixel intensity",prevented the reduction in cell number,69,32,1.26,0.631,96,631,increase in percentage of the image that was immunopositive and increased mean pixel intensity
